Assay results reported in patent US8524740B2, “Synthesis and anticancer activity of aryl and heteroaryl-quinolin derivatives” (Tairx, Inc., priority 2010, dated 2013).
Each block holds one compound with its values, some of them ahead of it.

Key:
[1] = tested on: HL-60; experiment: MTT assay, HL-60 cells; format: cell-based; conditions: Homo sapiens
Description: (§1) MTT (3-(4,5-Dimethylthiazol-2-yl)-2,5-diphenyltetrazolium bromide) assays.^21,22 HL-60, HCT-116, Hep 3B, H460, Detroit 551 and HT29/FuR cells were treated with tested compounds for the indicated periods. After treatment, cells were washed once with PBS and incubated with MTT (Sigma, St. Louis, Mo., USA) for 2 h. The formazan precipitate was dissolved in 150 μL of DMSO, and the absorbance was measured with an ELISA reader at 570 nm.
(§2) HL-60, Hep 3B, H460, MES-SA, MES-SAID x5 and Detroit 551 cells were treated with vehicle or test compounds for 48 h. The cell growth rate was determined by MTT (3-(4,5-dimethyl-thiazol-2-yl)-2,5-diphenyltetrazoliun bromide) reduction assay.
as §1, with “assays.” for “assays.^21,22”, “HCT-116, A549,” for “HCT-116,”, “KB, Kb-VIN” for “H460, Detroit 551”, “DU145” for “HT29/FuR”
as §1, with “assays.” for “assays.^21,22”, “HL-60,” for “HL-60, HCT-116,”, “H460, A498, Colo205 and” for “H460,”, “551” for “551 and HT29/FuR”

[2] = tested on: Hep3B; experiment: MTT assay, Hep 3B cells; format: cell-based; conditions: Homo sapiens
Description: as §1, §2
as §1, with “assays.” for “assays.^21,22”, “HCT-116, A549,” for “HCT-116,”, “KB, Kb-VIN” for “H460, Detroit 551”, “DU145” for “HT29/FuR”
as §1, with “assays.” for “assays.^21,22”, “HL-60,” for “HL-60, HCT-116,”, “H460, A498, Colo205 and” for “H460,”, “551” for “551 and HT29/FuR”

[3] = tested on: Detroit 551; experiment: MTT assay, Detroit 551 normal human cells; format: cell-based; conditions: for IC50: Detroit 551
Description: as §1, §2
as §1, with “assays.” for “assays.^21,22”, “HL-60,” for “HL-60, HCT-116,”, “H460, A498, Colo205 and” for “H460,”, “551” for “551 and HT29/FuR”

[4] = tested on: H460; experiment: MTT assay, H460 cells; format: cell-based; conditions: Homo sapiens, NCI-H460
Description: as §1, §2
as §1, with “assays.” for “assays.^21,22”, “HL-60,” for “HL-60, HCT-116,”, “H460, A498, Colo205 and” for “H460,”, “551” for “551 and HT29/FuR”

[5] = tested on: HL-60, HCT-116, Hep3B, H-460; experiment: Cytotoxicity screen (MTT) against human cancer cell lines, results in words; format: cell-based; conditions: comparison within sub-series or with CHM-2133
Description: as §1, §2

[6] = tested on: HCT116; experiment: MTT assay, HCT-116 cells; format: cell-based; conditions: Homo sapiens, Table 1, 48 h
Description: as §1
as §1, with “assays.” for “assays.^21,22”, “HCT-116, A549,” for “HCT-116,”, “KB, Kb-VIN” for “H460, Detroit 551”, “DU145” for “HT29/FuR”

[7] = tested on: HT29/5FuR; experiment: MTT assay, HT29/5FuR cells; format: cell-based; conditions: Homo sapiens, HT-29, Table 1, 48 h
Description: as §1

[8] = Homo sapiens, Table 4, B-3 series, 48 hrs
[9] = Homo sapiens, Table 2, B-1 series, 48 hrs
[10] = Table 1, 48 h, MTT, normal human cell

Compound: CN(C)c1ccc2c(c1)C(=O)CC(c1ccccc1O)=N2 [Compound 136, 2-(2-Hydroxyphenyl)-6-dimethylaminoquinolin-4-one]
- IC50 ([1]; Table 4, B-3 series, 48 hrs): 3.02 µM
- IC50 ([2]; Table 4, B-3 series, 48 hrs): 7.1 µM
- IC50 [3, 8]: 100 µM
- melting point: 296 to 298 °C
- IC50 ([4]; Table 4, B-3 series, 48 hrs): 5.4 µM

Compound: COc1cc(C2=Nc3ccc(N4CCCC4)cc3C(=O)C2)ccc1OCc1ccccc1 [Compound 123, 2-(4-(Benzyloxy)-3-methoxyphenyl)-6-pyrrolidinoquinolin-4-one]
- melting point: 304 to 306 °C

Compound: CN(C)c1ccc2c(c1)C(=O)CC(c1ccc(OCc3ccccc3)cc1)=N2 [Compound 121, 2-(4-Benzyloxyphenyl)-6-dimethylaminoquinolin-4-one]
- melting point: 283 to 285 °C

Compound: COc1ccc(O)cc1C1=Nc2ccc(N3CCOCC3)cc2C(=O)C1 [Compound 143a, 2-(5-hydroxy-2-methoxyphenyl)-6-morpholinoquinolin-4-one]
- IC50 ([1]; Table 2, B-1 series, 48 hrs): 93.8 µM
- IC50 ([2]; Table 2, B-1 series, 48 hrs): > 100 µM
- IC50 [3, 9]: > 100 µM
- IC50 ([4]; Table 2, B-1 series, 48 hrs): 84.8 µM

Compound: COc1cc2c(cc1OCc1ccccc1)N=C(c1ccccc1F)CC2=O [Compound 22, 7-Benzyloxy-2-(2-fluorophenyl)-6-methoxyquinolin-4-one]
- melting point: 132 to 134 °C

Compound: O=C1CC(c2ccc(OCc3ccccc3)cc2)=Nc2ccc(N3CCCC3)cc21 [Compound 120, 2-(4-Benzyloxyphenyl)-6-pyrrolidinoquinolin-4-one]
- melting point: 330 to 332 °C

Compound: CN(C)c1ccc2c(c1)C(=O)CC(c1ccc(O)cc1)=N2 [Compound 142, 2-(4-Hydroxyphenyl)-6-dimethylaminoquinolin-4-one]
- IC50 ([1]; Table 4, B-3 series, 48 hrs): 0.64 µM
- IC50 ([2]; Table 4, B-3 series, 48 hrs): 9 µM
- IC50 [3, 8]: 75 µM
- melting point: 321 to 323 °C
- IC50 ([4]; Table 4, B-3 series, 48 hrs): 0.56 µM

Compound: O=C1CC(c2cccc(OCc3ccccc3)c2)=Nc2ccc(N3CCCC3)cc21 [Compound 117, 2-(3-Benzyloxyphenyl)-6-pyrrolidinoquinolin-4-one]
- melting point: 320 to 322 °C

Compound: COc1cc2c(cc1OCc1ccccc1)N=C(c1ccc(F)cc1)CC2=O [Compound 24, 7-Benzyloxy-2-(4-fluorophenyl)-6-methoxyquinolin-4-one]
- melting point: 248 to 249 °C

Compound: O=C1CC(c2ccccc2OCc2ccccc2)=Nc2ccc(N3CCCC3)cc21 [Compound 114, 2-(2-Benzyloxyphenyl)-6-pyrrolidinoquinolin-4-one]
- melting point: 293 to 295 °C

Now from value to compound, other results behind:

- IC50 ([1]; Table 2, B-1 series, 48 hrs): 3.9 µM
- IC50 ([2]; Table 2, B-1 series, 48 hrs): 50 µM
- melting point: 297 to 299 °C
- IC50 ([4]; Table 2, B-1 series, 48 hrs): 50 µM
Compound: COc1cc(C2=Nc3ccc(N4CCOCC4)cc3C(=O)C2)ccc1O [Compound 143, 2-(4-Hydroxy-3-methoxyphenyl)-6-morpholinoquinolin-4-one]
- IC50 [3, 9]: 50 µM

- melting point: 154 to 155 °C
Compound: COc1cc2c(cc1OCc1ccccc1)N=C(c1cccc(F)c1)CC2=O [Compound 23, 7-Benzyloxy-2-(3-fluorophenyl)-6-methoxyquinolin-4-one]

- IC50 ([1]; Table 1, 48 h, MTT): 38.6 µM
- IC50 ([2]; Table 1, 48 h, MTT): 100 µM
- IC50 ([4]; Table 1, 48 h, MTT): 100 µM
- IC50 [6]: > 100 µM
Compound: O=C1CC(c2ccc(F)cc2)=Nc2ccc(O)c(O)c21 [Compound 42, 2-(4-Fluorophenyl)-5,6-dihydroxyquinolin-4-one]
- IC50 [3, 10]: > 100 µM
- cytotoxicity (in words) [5]: weaker

- IC50 ([1]; Table 3, B-2 series, 48 hrs): > 1 µM
- IC50 ([2]; Table 3, B-2 series, 48 hrs): > 1 µM
- melting point: 312 to 313 °C
- IC50 ([4]; Table 3, B-2 series, 48 hrs): > 1 µM
Compound: COc1ccc(C2=Nc3ccc(N4CCCC4)cc3C(=O)C2)cc1 [Compound 133, 2-(4-Methoxyphenyl)-6-pyrrolidinoquinolin-4-one]
- IC50 ([3]; Homo sapiens, Table 3, B-2 series, 48 hrs): > 1 µM

- IC50 ([1]; Table 1, 48 h, MTT): 0.067 µM
- IC50 ([2]; Table 1, 48 h, MTT): 0.05 µM
- IC50 [7]: 0.2 µM
- IC50 ([4]; Table 1, 48 h, MTT): 0.11 µM
- IC50 [6]: 0.05 µM
Compound: COc1ccc2c(c1O)C(=O)CC(c1ccccc1F)=N2 [Compound 37, 2-(2-Fluorophenyl)-5-hydroxy-6-methoxyquinolin-4-one]
- IC50 [3, 10]: 10 µM
- toxicity toward Detroit 551 normal human cell (in words) ([3]; Table 1 compounds): lower toxicity
- cytotoxicity (in words) [5]: greater cytotoxicity
